Molecular target: T1, F508delCFTR (Homo sapiens, UniProt P13569, DEL508-508)
T1 construct: expressed in transfected cells; host or cells: CFBE41o- (human lung derived epithelial cell line), doxycycline-inducible
Experiment: Cell Surface Expression-Horse Radish Peroxidase (CSE-HRP) assay
Type: cell-based
Conditions: CFBE41o-F508delCFTR-HRP cells; for EC50: F508delCFTR cell surface expression, luminescence, 18-24 hours at 33° C., highest concentration 20 μM; for Maximum % activity: maximum at any tested concentration, normalized to on-plate positive control (3 μM)
How it was run: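 CFBE41o- cells expressing doxycycline-induced (0.5 μg/mL, 72 h at 37 °C) F508delCFTR with HRP in the fourth extracellular loop; compounds 8 points, 3-fold from 20 μM, 18-24 h at 33 °C. Surface HRP measured by luminol luminescence, normalised to DMSO and 3 μM reference corrector; EC50 from variable-slope sigmoidal fit of triplicate plates.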

T1 sequence (P13569 with tags, fused parts or gaps DEL508-508): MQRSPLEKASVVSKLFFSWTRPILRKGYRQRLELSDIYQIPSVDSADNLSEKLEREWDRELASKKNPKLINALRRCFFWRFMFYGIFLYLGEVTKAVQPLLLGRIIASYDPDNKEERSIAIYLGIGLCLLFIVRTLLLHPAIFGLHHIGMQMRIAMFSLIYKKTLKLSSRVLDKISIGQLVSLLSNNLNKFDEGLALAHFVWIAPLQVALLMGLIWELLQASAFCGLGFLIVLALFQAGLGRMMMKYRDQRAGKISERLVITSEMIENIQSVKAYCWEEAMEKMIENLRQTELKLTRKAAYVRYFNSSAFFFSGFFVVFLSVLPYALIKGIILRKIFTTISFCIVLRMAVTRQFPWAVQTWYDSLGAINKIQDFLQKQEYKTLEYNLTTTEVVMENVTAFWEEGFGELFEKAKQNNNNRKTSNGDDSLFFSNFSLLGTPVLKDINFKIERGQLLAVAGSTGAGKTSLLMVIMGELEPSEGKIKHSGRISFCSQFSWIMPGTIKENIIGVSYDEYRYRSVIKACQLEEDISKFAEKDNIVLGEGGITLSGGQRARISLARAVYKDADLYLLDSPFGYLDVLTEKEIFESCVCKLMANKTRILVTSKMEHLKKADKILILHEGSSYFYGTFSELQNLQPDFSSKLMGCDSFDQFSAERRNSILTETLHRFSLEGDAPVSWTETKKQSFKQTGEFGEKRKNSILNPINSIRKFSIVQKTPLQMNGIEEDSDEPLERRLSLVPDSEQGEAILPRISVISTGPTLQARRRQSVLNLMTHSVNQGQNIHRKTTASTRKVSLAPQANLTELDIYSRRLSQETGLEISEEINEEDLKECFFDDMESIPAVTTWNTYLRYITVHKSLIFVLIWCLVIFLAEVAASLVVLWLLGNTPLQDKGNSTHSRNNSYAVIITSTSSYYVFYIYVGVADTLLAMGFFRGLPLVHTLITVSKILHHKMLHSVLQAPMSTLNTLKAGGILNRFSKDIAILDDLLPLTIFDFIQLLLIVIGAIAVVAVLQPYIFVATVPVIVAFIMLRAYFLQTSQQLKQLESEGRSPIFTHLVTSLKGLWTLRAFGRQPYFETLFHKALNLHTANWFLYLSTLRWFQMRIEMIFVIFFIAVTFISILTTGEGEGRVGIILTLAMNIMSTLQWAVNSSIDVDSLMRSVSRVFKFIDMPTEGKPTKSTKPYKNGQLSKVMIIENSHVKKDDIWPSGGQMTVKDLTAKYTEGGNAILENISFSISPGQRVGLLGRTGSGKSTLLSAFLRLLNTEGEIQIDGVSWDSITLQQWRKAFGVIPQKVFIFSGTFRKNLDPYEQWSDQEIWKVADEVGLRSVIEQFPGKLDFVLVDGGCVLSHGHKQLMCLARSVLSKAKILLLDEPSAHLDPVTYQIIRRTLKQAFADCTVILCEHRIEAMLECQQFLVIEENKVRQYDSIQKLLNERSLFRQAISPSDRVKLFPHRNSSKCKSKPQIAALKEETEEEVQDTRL

SMILES | EC50 [nM] | Maximum % activity [%]
COC(=O)c1cccc([C@H]2C[C@@H](NC(=O)[C@]3(C)CCc4cc(Cl)ccc4O3)c3ccccc3O2)c1 [Example 63, methyl 3-[(2R,4R)-4-{[(2S)-6-chloro-2-methyl-3,4-dihydro-2H-1-benzopyran-2-carbonyl]amino}-3,4-dihydro-2H-1-benzopyran-2-yl]benzoate] | > 20000 | 5.1
C[C@@]1(C(=O)N[C@@H]2C[C@H](c3cccc(C(=O)O)c3)Oc3ccccc32)CCc2cc(Cl)ccc2O1 [Example 64, 3-[(2R,4R)-4-{[(2S)-6-chloro-2-methyl-3,4-dihydro-2H-1-benzopyran-2-carbonyl]amino}-3,4-dihydro-2H-1-benzopyran-2-yl]benzoic acid] | > 20000 | 18.0
C[C@]1(C(=O)N[C@@H]2C[C@H](c3cccc(C(=O)O)c3)Oc3ccccc32)CCc2cc(Cl)ccc2O1 [Example 66, 3-[(2R,4R)-4-{[(2R)-6-chloro-2-methyl-3,4-dihydro-2H-1-benzopyran-2-carbonyl]amino}-3,4-dihydro-2H-1-benzopyran-2-yl]benzoic acid] | > 20000 | 4.8
COc1ccc2c(c1)O[C@@H](c1ccc(C(=O)O)cc1)C[C@H]2NC(=O)[C@@]1(C)CCc2cc(Cl)ccc2O1 [Example 67, 4-[(2R,4R)-4-{[(2R)-6-chloro-2-methyl-3,4-dihydro-2H-1-benzopyran-2-carbonyl]amino}-7-methoxy-3,4-dihydro-2H-1-benzopyran-2-yl]benzoic acid] | > 20000 | 4.7
COc1ccc2c(c1)O[C@@H](c1ccc(C(=O)O)cc1)C[C@H]2NC(=O)C1(c2ccc(OC(F)(F)F)cc2)CCC1 [Example 70, 4-[(2R,4R)-7-methoxy-4-({1-[4-(trifluoromethoxy)phenyl]cyclobutane-1-carbonyl}amino)-3,4-dihydro-2H-1-benzopyran-2-yl]benzoic acid] | 2210 | 28.0
COc1ccc2c(c1)O[C@@H](c1ccc(C(=O)O)cc1)C[C@H]2NC(=O)C1(c2ccccc2)CC(F)(F)C1 [Example 72, 4-{(2R,4R)-4-[(3,3-difluoro-1-phenylcyclobutane-1-carbonyl)amino]-7-methoxy-3,4-dihydro-2H-1-benzopyran-2-yl}benzoic acid] | > 20000 | 1.4
COc1ccc2c(c1)O[C@@H](c1ccc(C(=O)O)cc1)C[C@H]2NC(=O)C1(c2ccc(Cl)cc2)CCC1 [Example 76, 4-[(2R,4R)-4-{[1-(4-chlorophenyl)cyclobutane-1-carbonyl]amino}-7-methoxy-3,4-dihydro-2H-1-benzopyran-2-yl]benzoic acid] | 2100 | 52.0
COc1ccc2c(c1)O[C@@H](c1ccc(C(=O)O)cc1)C[C@H]2NC(=O)C(C)(C)Oc1ccc(Cl)c(C)c1 [Example 77, 4-{(2R,4R)-4-[2-(4-chloro-3-methylphenoxy)-2-methylpropanamido]-7-methoxy-3,4-dihydro-2H-1-benzopyran-2-yl}benzoic acid] | > 20000 | 8.0
COc1ccc2c(c1)O[C@@H](c1ccc(C(=O)O)cc1)C[C@H]2NC(=O)C(C)(C)Oc1cccc(C(F)(F)F)c1 [Example 78, 4-[(2R,4R)-7-methoxy-4-{2-methyl-2-[3-(trifluoromethyl)phenoxy]propanamido}-3,4-dihydro-2H-1-benzopyran-2-yl]benzoic acid] | 2470 | 32.0
COc1ccc2c(c1)O[C@@H](c1ccc(C(=O)O)cc1)C[C@H]2NC(=O)C1(c2ccccc2)CCC(F)(F)C1 (stereo partly drawn) [Example 80, 4-{(2R,4R)-4-[(3,3-difluoro-1-phenylcyclopentane-1-carbonyl)amino]-7-methoxy-3,4-dihydro-2H-1-benzopyran-2-yl}benzoic acid] | > 20000 | −0.2
COc1ccc2c(c1)O[C@@H](c1ccc(C(=O)O)cc1)C[C@H]2NC(=O)C1(c2cccc(OC(F)(F)F)c2)CCC1 [Example 83, 4-[(2R,4R)-7-methoxy-4-({1-[3-(trifluoromethoxy)phenyl]cyclobutane-1-carbonyl}amino)-3,4-dihydro-2H-1-benzopyran-2-yl]benzoic acid] | 3170 | 51.0

These reach a lower EC50. Values come first.

EC50 [nM] | Maximum % activity [%] | SMILES
1310 | 85.0 | COc1ccc2c(c1)O[C@@H](c1ccc(C(=O)O)cc1)C[C@H]2NC(=O)C1(C)CCc2cc(OC(F)(F)F)ccc21 (stereo partly drawn) [Example 68, 4-[(2R,4R)-7-methoxy-4-{[1-methyl-5-(trifluoromethoxy)-2,3-dihydro-1H-indene-1-carbonyl]amino}-3,4-dihydro-2H-1-benzopyran-2-yl]benzoic acid]
100 | 66.1 | COc1ccc2c(c1)CC[C@]2(C)C(=O)N[C@@H]1C[C@H](c2ccc(C(=O)O)cc2)Oc2cc(OC)ccc21 [Example 69, 4-[(2R,4R)-7-methoxy-4-{[(1S)-5-methoxy-1-methyl-2,3-dihydro-1H-indene-1-carbonyl]amino}-3,4-dihydro-2H-1-benzopyran-2-yl]benzoic acid]
120 | 52.0 | COc1ccc2c(c1)O[C@@H](c1ccc(C(=O)O)cc1)C[C@H]2NC(=O)C(C)(C)c1ccc2c(c1)CCO2 [Example 71, 4-{(2R,4R)-4-[2-(2,3-dihydro-1-benzofuran-5-yl)-2-methylpropanamido]-7-methoxy-3,4-dihydro-2H-1-benzopyran-2-yl}benzoic acid]
1840 | 29.0 | COc1ccc2c(c1)O[C@@H](c1ccc(C(=O)O)cc1)C[C@H]2NC(=O)C(C)(C)Oc1cccc(Cl)c1 [Example 73, 4-{(2R,4R)-4-[2-(3-chlorophenoxy)-2-methylpropanamido]-7-methoxy-3,4-dihydro-2H-1-benzopyran-2-yl}benzoic acid]
70 | 49.8 | COc1ccc(C2(C(=O)N[C@@H]3C[C@H](c4ccc(C(=O)O)cc4)Oc4cc(OC)ccc43)CC2)cc1 [Example 74, 4-[(2R,4R)-7-methoxy-4-{[1-(4-methoxyphenyl)cyclopropane-1-carbonyl]amino}-3,4-dihydro-2H-1-benzopyran-2-yl]benzoic acid]
950 | 37.9 | COc1ccc2c(c1)O[C@@H](c1ccc(C(=O)O)cc1)C[C@H]2NC(=O)C1(c2ccccc2)CC1 [Example 75, 4-{(2R,4R)-7-methoxy-4-[(1-phenylcyclopropane-1-carbonyl)amino]-3,4-dihydro-2H-1-benzopyran-2-yl}benzoic acid]
1880 | 32.0 | COc1ccc2c(c1)O[C@@H](c1ccc(C(=O)O)cc1)C[C@H]2NC(=O)C1(c2ccc(F)c(F)c2)CCC1 [Example 81, 4-[(2R,4R)-4-{[1-(3,4-difluorophenyl)cyclobutane-1-carbonyl]amino}-7-methoxy-3,4-dihydro-2H-1-benzopyran-2-yl]benzoic acid]
1880 | 23.3 | COc1ccc2c(c1)O[C@@H](c1ccc(C(=O)O)cc1)C[C@H]2NC(=O)C1(c2ccccc2C(F)(F)F)CCC1 [Example 82, 4-[(2R,4R)-7-methoxy-4-({1-[2-(trifluoromethyl)phenyl]cyclobutane-1-carbonyl}amino)-3,4-dihydro-2H-1-benzopyran-2-yl]benzoic acid]
560 | 56.2 | COc1ccc2c(c1)O[C@@H](c1ccc(C(=O)O)cc1)C[C@H]2NC(=O)C1(c2ccc(F)cc2)CC1 [Example 84, 4-[(2R,4R)-4-{[1-(4-fluorophenyl)cyclopropane-1-carbonyl]amino}-7-methoxy-3,4-dihydro-2H-1-benzopyran-2-yl]benzoic acid]
720 | 50.4 | COc1ccc2c(c1)O[C@@H](c1ccc(C(=O)O)cc1)C[C@H]2NC(=O)C1(c2cccc(F)c2)CC1 [Example 85, 4-[(2R,4R)-4-{[1-(3-fluorophenyl)cyclopropane-1-carbonyl]amino}-7-methoxy-3,4-dihydro-2H-1-benzopyran-2-yl]benzoic acid]
570 | 57.9 | COc1ccc2c(c1)O[C@@H](c1ccc(C(=O)O)cc1)C[C@H]2NC(=O)C1(c2ccc(C)c(OC)c2)CC1 [Example 86, 4-[(2R,4R)-7-methoxy-4-{[1-(3-methoxy-4-methylphenyl)cyclopropane-1-carbonyl]amino}-3,4-dihydro-2H-1-benzopyran-2-yl]benzoic acid]
1830 | 46.0 | COc1ccc2c(c1)O[C@@H](c1ccc(C(=O)O)cc1)C[C@H]2NC(=O)C1(c2cccc(C#N)c2)CC1 [Example 87, 4-[(2R,4R)-4-{[1-(3-cyanophenyl)cyclopropane-1-carbonyl]amino}-7-methoxy-3,4-dihydro-2H-1-benzopyran-2-yl]benzoic acid]
640 | 44.0 | COc1ccc2c(c1)O[C@@H](c1ccc(C(=O)O)cc1)C[C@H]2NC(=O)C1(c2cccc(Br)c2)CC1 [Example 88, 4-[(2R,4R)-4-{[1-(3-bromophenyl)cyclopropane-1-carbonyl]amino}-7-methoxy-3,4-dihydro-2H-1-benzopyran-2-yl]benzoic acid]
750 | 42.0 | COc1ccc2c(c1)O[C@@H](c1ccc(C(=O)O)cc1)C[C@H]2NC(=O)C1(c2ccccc2Br)CC1 [Example 89, 4-[(2R,4R)-4-{[1-(2-bromophenyl)cyclopropane-1-carbonyl]amino}-7-methoxy-3,4-dihydro-2H-1-benzopyran-2-yl]benzoic acid]

Source: patent US10118916B2, “Modulators of cystic fibrosis transmembrane conductance regulator protein” (AbbVie S.à.r.l., priority 2016, dated 2018)
